Source: PubChem BioAssay AID1919013 (Molecular Pharmacology Branch, DTP, NCI, 2023)
Each block holds one compound with its values, some of them ahead of it.

System: LG0703-F498-PDC complex spheroid growth
Assay: Anticancer human tumor LG0703-F498-PDC patient-derived lung adenocarcinoma cell line growth inhibition [AhR]
Conditions: for IC50: curve of first compound; for viability, T/C: stronger effect = lower value
In short: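 Complex tumor spheroids co-cultured with HUVEC and human MSC stroma; AhR antagonists tested in combination with standard-of-care and investigational agents. Top concentration at or near clinical Cmax (else 10 microM), half-log dilutions; growth expressed as percent test/control.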

[1] = second compound 0.1 µM, first compound 0.0316 µM
[2] = second compound 0.1 µM, first compound 0.1 µM
[3] = second compound 0.1 µM, first compound 0.316 µM
[4] = second compound 0.1 µM, first compound 1 µM
[5] = second compound 0.1 µM, first compound 3.16 µM
[6] = second compound 0.1 µM, first compound 10 µM
[7] = second compound 0.316 µM, first compound 0.0316 µM
[8] = second compound 0.316 µM, first compound 0.1 µM
[9] = second compound 0.316 µM, first compound 0.316 µM
[10] = second compound 0.316 µM, first compound 1 µM
[11] = second compound 0.316 µM, first compound 3.16 µM
[12] = second compound 0.316 µM, first compound 10 µM
[13] = second compound 1 µM, first compound 0.0316 µM
[14] = second compound 1 µM, first compound 0.1 µM
[15] = second compound 1 µM, first compound 0.316 µM
[16] = second compound 1 µM, first compound 1 µM
[17] = second compound 1 µM, first compound 3.16 µM
[18] = second compound 1 µM, first compound 10 µM
[19] = second compound 3.16 µM, first compound 0.0316 µM
[20] = second compound 3.16 µM, first compound 0.1 µM
[21] = second compound 3.16 µM, first compound 0.316 µM
[22] = second compound 3.16 µM, first compound 1 µM
[23] = second compound 3.16 µM, first compound 3.16 µM
[24] = second compound 3.16 µM, first compound 10 µM
[25] = second compound 10 µM, first compound 0.0316 µM
[26] = second compound 10 µM, first compound 0.1 µM
[27] = second compound 10 µM, first compound 0.316 µM
[28] = second compound 10 µM, first compound 1 µM
[29] = second compound 10 µM, first compound 3.16 µM
[30] = second compound 10 µM, first compound 10 µM
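Also: luminescence taken as a proxy for viable cell amount.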
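For viability, T/C in this document: percent of DMSO vehicle control where 100% means growth equal to vehicle.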

Structure (SMILES): COc1cc(C2c3cc4c(cc3C(OC3OC5COC(C)OC5C(O)C3O)C3COC(=O)C23)OCO4)cc(OC)c1O (stereo not given) + Cc1cncc(-c2nc(NCCc3c[nH]c4ccccc34)c3ncn(C(C)C)c3n2)c1
IC50 (second compound 0.1 µM): > 10 µM | IC50 (second compound 0.316 µM): > 10 µM | IC50 (second compound 1 µM): > 10 µM | IC50 (second compound 3.16 µM): 5.51 µM | IC50 (second compound 10 µM): < 0.0316 µM | viability, T/C [1]: 105% | viability, T/C [2]: 96.7% | viability, T/C [3]: 102% | viability, T/C [4]: 93.8% | viability, T/C [5]: 84.6% | viability, T/C [6]: 63.4% | viability, T/C [7]: 112% | viability, T/C [8]: 110% | viability, T/C [9]: 96.8% | viability, T/C [10]: 85.4% | viability, T/C [11]: 77.9% | viability, T/C [12]: 71.5% | viability, T/C [13]: 89.7% | viability, T/C [14]: 126% | viability, T/C [15]: 115% | viability, T/C [16]: 93.3% | viability, T/C [17]: 72.2% | viability, T/C [18]: 64.5% | viability, T/C [19]: 60.3% | viability, T/C [20]: 64.1% | viability, T/C [21]: 62.8% | viability, T/C [22]: 54.3% | viability, T/C [23]: 51.6% | viability, T/C [24]: 47.9% | viability, T/C [25]: 1.19% | viability, T/C [26]: 1.35% | viability, T/C [27]: 1.7% | viability, T/C [28]: 1.47% | viability, T/C [29]: 1.3% | viability, T/C [30]: 2.49%

Structure (SMILES): Cn1ncnc1C1c2n[nH]c(=O)c3cc(F)cc(c23)NC1c1ccc(F)cc1 (stereo not given) + Cc1ccccc1N=Nc1ccc(NC(=O)c2ccnn2C)c(C)c1
IC50 (second compound 0.1 µM): > 0.1 µM | IC50 (second compound 0.316 µM): > 0.1 µM | IC50 (second compound 1 µM): > 0.1 µM | IC50 (second compound 3.16 µM): > 0.1 µM | IC50 (second compound 10 µM): > 0.1 µM | viability, T/C (second compound 0.1 µM, first compound 0.000316 µM): 97.2% | viability, T/C (second compound 0.1 µM, first compound 0.001 µM): 88.6% | viability, T/C (second compound 0.1 µM, first compound 0.00316 µM): 103% | viability, T/C (second compound 0.1 µM, first compound 0.01 µM): 95.2% | viability, T/C [1]: 104% | viability, T/C [2]: 89.7% | viability, T/C (second compound 0.316 µM, first compound 0.000316 µM): 93.8% | viability, T/C (second compound 0.316 µM, first compound 0.001 µM): 98.1% | viability, T/C (second compound 0.316 µM, first compound 0.00316 µM): 92.6% | viability, T/C (second compound 0.316 µM, first compound 0.01 µM): 94.3% | viability, T/C [7]: 85.5% | viability, T/C [8]: 88.1% | viability, T/C (second compound 1 µM, first compound 0.000316 µM): 93.5% | viability, T/C (second compound 1 µM, first compound 0.001 µM): 89.4% | viability, T/C (second compound 1 µM, first compound 0.00316 µM): 83.3% | viability, T/C (second compound 1 µM, first compound 0.01 µM): 79.6% | viability, T/C [13]: 95.9% | viability, T/C [14]: 83.1% | viability, T/C (second compound 3.16 µM, first compound 0.000316 µM): 84.9% | viability, T/C (second compound 3.16 µM, first compound 0.001 µM): 79.9% | viability, T/C (second compound 3.16 µM, first compound 0.00316 µM): 88% | viability, T/C (second compound 3.16 µM, first compound 0.01 µM): 78.3% | viability, T/C [19]: 79.7% | viability, T/C [20]: 75.9% | viability, T/C (second compound 10 µM, first compound 0.000316 µM): 84.2% | viability, T/C (second compound 10 µM, first compound 0.001 µM): 85.2% | viability, T/C (second compound 10 µM, first compound 0.00316 µM): 77.9% | viability, T/C (second compound 10 µM, first compound 0.01 µM): 85.9% | viability, T/C [25]: 79.4% | viability, T/C [26]: 79.5%

Second part, led by results:

IC50 (second compound 0.1 µM): 0.00238 µM | IC50 (second compound 0.316 µM): 0.00252 µM | IC50 (second compound 1 µM): 0.00212 µM | IC50 (second compound 3.16 µM): 0.00209 µM | IC50 (second compound 10 µM): 0.00188 µM
Structure (SMILES): CC(C)CC(NC(=O)C(Cc1ccccc1)NC(=O)c1cnccn1)B(O)O (stereo not given) + CC(CO)NC(=O)c1cc(-c2ccc(Cl)cc2)nn(-c2cnn(C)c2)c1=O
viability, T/C (second compound 0.1 µM, first compound 0.000949 µM): 76.8% | viability, T/C (second compound 0.1 µM, first compound 0.003 µM): 43.2% | viability, T/C (second compound 0.1 µM, first compound 0.00949 µM): 1.95% | viability, T/C (second compound 0.1 µM, first compound 0.03 µM): 0.49% | viability, T/C (second compound 0.1 µM, first compound 0.0949 µM): 0.12% | viability, T/C (second compound 0.1 µM, first compound 0.3 µM): 0.2% | viability, T/C (second compound 0.316 µM, first compound 0.000949 µM): 80% | viability, T/C (second compound 0.316 µM, first compound 0.003 µM): 44.7% | viability, T/C (second compound 0.316 µM, first compound 0.00949 µM): 3.04% | viability, T/C (second compound 0.316 µM, first compound 0.03 µM): 0.34% | viability, T/C (second compound 0.316 µM, first compound 0.0949 µM): 0.17% | viability, T/C (second compound 0.316 µM, first compound 0.3 µM): 0.17% | viability, T/C (second compound 1 µM, first compound 0.000949 µM): 75.9% | viability, T/C (second compound 1 µM, first compound 0.003 µM): 38.8% | viability, T/C (second compound 1 µM, first compound 0.00949 µM): 2.08% | viability, T/C (second compound 1 µM, first compound 0.03 µM): 0.36% | viability, T/C (second compound 1 µM, first compound 0.0949 µM): 1.04% | viability, T/C (second compound 1 µM, first compound 0.3 µM): 0.16% | viability, T/C (second compound 3.16 µM, first compound 0.000949 µM): 78% | viability, T/C (second compound 3.16 µM, first compound 0.003 µM): 37.3% | viability, T/C (second compound 3.16 µM, first compound 0.00949 µM): 1.6% | viability, T/C (second compound 3.16 µM, first compound 0.03 µM): 0.13% | viability, T/C (second compound 3.16 µM, first compound 0.0949 µM): 0.63% | viability, T/C (second compound 3.16 µM, first compound 0.3 µM): 1.52% | viability, T/C (second compound 10 µM, first compound 0.000949 µM): 71.2% | viability, T/C (second compound 10 µM, first compound 0.003 µM): 35.5% | viability, T/C (second compound 10 µM, first compound 0.00949 µM): 1.37% | viability, T/C (second compound 10 µM, first compound 0.03 µM): 0.23% | viability, T/C (second compound 10 µM, first compound 0.0949 µM): 0.25% | viability, T/C (second compound 10 µM, first compound 0.3 µM): 0.21%

IC50 (second compound 0.1 µM): 5.42 µM | IC50 (second compound 0.316 µM): 4.81 µM | IC50 (second compound 1 µM): 4.59 µM | IC50 (second compound 3.16 µM): < 0.0316 µM | IC50 (second compound 10 µM): < 0.0316 µM
Structure (SMILES): COc1ccc([C@@H](O)c2cc(-c3ncnc4cc(N5CCOCC5)ccc34)c(F)cc2Cl)nn1 + Cc1cncc(-c2nc(NCCc3c[nH]c4ccccc34)c3ncn(C(C)C)c3n2)c1
viability, T/C [1]: 87.8% | viability, T/C [2]: 107% | viability, T/C [3]: 98.1% | viability, T/C [4]: 82.2% | viability, T/C [5]: 65.3% | viability, T/C [6]: 34% | viability, T/C [7]: 105% | viability, T/C [8]: 97% | viability, T/C [9]: 97.8% | viability, T/C [10]: 82% | viability, T/C [11]: 63.5% | viability, T/C [12]: 27.5% | viability, T/C [13]: 95.9% | viability, T/C [14]: 104% | viability, T/C [15]: 103% | viability, T/C [16]: 92.4% | viability, T/C [17]: 60.4% | viability, T/C [18]: 28.7% | viability, T/C [19]: 36.7% | viability, T/C [20]: 42.4% | viability, T/C [21]: 34% | viability, T/C [22]: 27.4% | viability, T/C [23]: 17.8% | viability, T/C [24]: 13% | viability, T/C [25]: 1.26% | viability, T/C [26]: 1% | viability, T/C [27]: 1.42% | viability, T/C [28]: 1.17% | viability, T/C [29]: 0.52% | viability, T/C [30]: 1.67%

IC50 (second compound 0.1 µM): < 0.0316 µM | IC50 (second compound 0.316 µM): < 0.0316 µM | IC50 (second compound 1 µM): < 0.0316 µM | IC50 (second compound 3.16 µM): < 0.0316 µM | IC50 (second compound 10 µM): < 0.0316 µM
Structure (SMILES): Nc1ccn(C2OC(CO)C(O)C2(F)F)c(=O)n1 (stereo not given) + Cc1ccccc1N=Nc1ccc(NC(=O)c2ccnn2C)c(C)c1
viability, T/C [1]: 40.4% | viability, T/C [2]: 34.1% | viability, T/C [3]: 31% | viability, T/C [4]: 31.8% | viability, T/C [5]: 31% | viability, T/C [6]: 28.1% | viability, T/C [7]: 35.8% | viability, T/C [8]: 36.6% | viability, T/C [9]: 30.5% | viability, T/C [10]: 32% | viability, T/C [11]: 31.9% | viability, T/C [12]: 22.6% | viability, T/C [13]: 37.6% | viability, T/C [14]: 33.7% | viability, T/C [15]: 34.1% | viability, T/C [16]: 31.4% | viability, T/C [17]: 29.5% | viability, T/C [18]: 22.1% | viability, T/C [19]: 30.8% | viability, T/C [20]: 38.2% | viability, T/C [21]: 31% | viability, T/C [22]: 27.8% | viability, T/C [23]: 24.6% | viability, T/C [24]: 24.5% | viability, T/C [25]: 39.3% | viability, T/C [26]: 36.5% | viability, T/C [27]: 37.5% | viability, T/C [28]: 37.8% | viability, T/C [29]: 36.9% | viability, T/C [30]: 26.2%
